Assay results as given in patent US12274689B2, “Compound for the management of feline diabetes” (INCREVET, INC., priority 2019, dated 2025).

Key:
[1] = tested on: cats with experimental diabetes; settings: subcutaneous injection of a suspension in olive oil; Lukens et al. 1943, 1961; cited from earlier work
ZDF rats = experiment: plasma glucose in male Zucker Diabetic Fatty rats, daily oral dosing (study 338); format: in vivo; settings: ZDF rats; after 3 weeks; groups receiving 0.3, 1.0 and 3.0 mg kg^−1 (p<0.05, <0.01 and <0.01)

Structure (SMILES)	hyperglycemia in diabetic cats [1]	plasma glucose levels compared to vehicle control (ZDF rats)
O=C(CCc1ccc(O)cc1)c1c(O)cc(O)cc1O[C@@H]1O[C@H](CO)[C@@H](O)[C@H](O)[C@H]1O [phlorizin]	dramatic reduction of hyperglycemia	
OC[C@H]1O[C@@H](c2ccc(Cl)c(Cc3ccc(OCCOC4CC4)cc3)c2)[C@H](O)[C@@H](O)[C@@H]1O [EGT0001474, bis-proline complex of (2S,3R,4R,5S,6R)-2-(4-chloro-3-(4-(2-cyclopropoxyethoxy)benzyl)phenyl)-6-(hydroxymethyl)tetrahydro-2H-pyran-3,4,5-triol]		significantly lower
